Consider eight compounds from paper PMC6709497, “Identification of Novel Trypanosoma cruzi Proteasome Inhibitors Using a Luminescence-Based High-Throughput Screening Assay” (Antimicrobial Agents and Chemotherapy, 2019).

Like-named read-outs stand apart in the source and are kept apart here. Starred links: 1 amine or outer side, 2 acyl side, 3 side chain; linkers in the order of their positions; H or OH if unused. Non-standard residues stand in square brackets, D forms with d. Residues, ends and D or L forms follow the SMILES beside them. ξ: configuration not given here. *: point of attachment. aminoluciferin = aminoluciferin attached at the C-terminus (luminogenic reporter), O=C(O)[C@H]1CSC(c2nc3ccc(N*)cc3s2)=N1; Suc = O=C(CCC(=O)[*:2])[*:1]; Nva = CCC[C@H](N)C(=O)O; Cbz = O=C(OCc1ccccc1)*; ξL = CC(C)CC(N)C(=O)O

On the set-up of data set [1]: method as in PMID 28645201. To be noted: cited from earlier work.
Data set [2] deals with T. cruzi proteasome chymotrypsin-like activity (Trypanosoma cruzi, UniProt V5BU39). The data set is described as follows: Cell-free T. cruzi proteasome chymotrypsin-like activity luminescence assay (commercial inhibitors). In kind it is biochemical. The text has this: (§1) The commercially available Proteasome-Glo 3-substrate system and chymotrypsin-like assay kits (Promega; catalogue no. G8531 and G8622, respectively) were assembled according to the manufacturers’ protocols ([29]) unless otherwise stated. Briefly, Proteasome-Glo buffer was used to formulate the luciferin detection reagent (containing a recombinant thermostable luciferase enzyme) to approximately 0.35% (wt/vol) final assay concentration. The luciferin detection reagent was then mixed with Proteasome-Glo trypsin-, caspase-, or chymotrypsin-like reagents (comprising 15 μM Z-Leu-Arg-Arg-aminoluciferin (Z is benzyloxycarbonyl), 20 μM Z-Nle-Pro-Nle-Asp-aminoluciferin, or 20 μM suc-Leu-Leu-Val-Tyr-aminoluciferin substrate, respectively, at final assay concentrations), and the mixture was allowed to incubate at room temperature for 60 min prior to use. T. cruzi proteasome buffer comprised 50 mM Tris-HCl, pH 7.5, 10 mM sucrose, 5 mM MgCl2, 1 mM dithiothreitol, 2 mM ATP, 150 mM NaCl, 1 mM EDTA, and 0.05 mg/ml bovine serum albumin (BSA). […] Biochemical cell-free assays were performed in an 8-μl final assay volume using 384-well white low-volume plates (Greiner; catalogue no. 784904), and cellular assays were performed in a 50-μl final assay volume using 384-well standard volume plates (Greiner; catalogue no. 781098). Luminescence was read using an EnVision 2102 Multilabel Reader (PerkinElmer, USA) with 0.2-s per well reading time, unless otherwise specified. DMSO or compound was added to the assay plates using Echo acoustic dispensers (Labcyte, USA). Reagent addition for high-throughput screening assays was performed using an Xrd-384 liquid dispenser (FluidX, United Kingdom) and a BioFill Solo/Xrd-384 8-channel resin nozzle (0.5- to 200-μl) tubing cartridge (FluidX; catalogue no. 34-1003). Data analysis was performed using SigmaPlot 12.5 software unless otherwise stated. Z factor values were calculated using the following equation: Z factor = 1 − ({3 × [1.483 × (RLU MAD Max)]} + {3 × [1.483 × (RLU MAD Min)]})/(median RLU Max − median RLU Min), where MAD is the median absolute deviation, Max is the maximum-effect control samples, and Min is the minimum-effect control samples.
Sequence of T. cruzi proteasome chymotrypsin-like activity (V5BU39 entry or part of it): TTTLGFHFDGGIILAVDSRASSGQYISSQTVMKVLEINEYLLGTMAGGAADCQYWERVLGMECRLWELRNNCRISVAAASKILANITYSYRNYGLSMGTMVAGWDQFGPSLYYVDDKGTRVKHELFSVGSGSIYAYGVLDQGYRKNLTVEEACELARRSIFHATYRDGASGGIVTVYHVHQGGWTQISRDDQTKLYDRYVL
Sequence of T. cruzi proteasome chymotrypsin-like activity (A0A2V2VW62 entry or part of it, further chain): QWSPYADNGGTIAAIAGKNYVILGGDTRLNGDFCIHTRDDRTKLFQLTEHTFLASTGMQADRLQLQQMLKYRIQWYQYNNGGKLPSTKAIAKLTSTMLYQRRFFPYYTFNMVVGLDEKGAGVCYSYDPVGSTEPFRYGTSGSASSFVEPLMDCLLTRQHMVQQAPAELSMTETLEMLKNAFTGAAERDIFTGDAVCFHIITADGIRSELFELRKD
Sequence of T. cruzi proteasome chymotrypsin-like activity (V5C017 entry or part of it, further chain): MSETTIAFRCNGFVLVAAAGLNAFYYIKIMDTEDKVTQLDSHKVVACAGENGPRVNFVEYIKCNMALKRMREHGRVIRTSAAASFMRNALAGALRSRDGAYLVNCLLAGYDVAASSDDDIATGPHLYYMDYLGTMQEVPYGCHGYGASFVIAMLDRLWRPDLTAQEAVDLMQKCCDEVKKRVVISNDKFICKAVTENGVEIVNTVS
(§2) Next, 4 μl of luciferin detection and Proteasome-Glo chymotrypsin-, caspase-, or trypsin-like reagent mixtures were added to initiate the biochemical reaction. The reaction was allowed to proceed at room temperature for 60 min, after which the luminescence was read. Data were acquired from 4 independent replicates (n = 4). Relative luminescence unit (RLU) data were normalized to percent inhibition values relative to 100% effect (DMSO, 1% [vol/vol] final assay concentration in the absence of T. cruzi proteasome enzyme) and 0% effect (DMSO, 1% [vol/vol] final assay concentration with T. cruzi proteasome enzyme) control populations using Microsoft Excel 2013 software. IC50 values were calculated by fitting the concentration-response data for each independent replicate separately to either a four-parameter logistic model or a seven-parameter logistic model with the bottom curve plateau parameter constrained to zero, as shown below.
The four-parameter logistic model is as follows: y=Min+Max−Min/1+(x/IC50)^−Hillslope
The seven-parameter logistic model is as follows: y=(Max_1+{Min−Max_1/1+[(x/IC50_1)^Hillslope_1]})+(Max_2−{Max_2/1+[(x/IC50_2)^Hillslope_2]}) […]

Data set [3] deals with T. cruzi proteasome caspase-like activity (Trypanosoma cruzi, UniProt V5BHX1). The data set is described as follows: Cell-free T. cruzi proteasome caspase-like activity luminescence assay. Type of data set: biochemical. To be noted: n = 4; 20 μM Z-Nle-Pro-Nle-Asp-aminoluciferin.
Sequence of T. cruzi proteasome caspase-like activity (V5BHX1 entry or part of it): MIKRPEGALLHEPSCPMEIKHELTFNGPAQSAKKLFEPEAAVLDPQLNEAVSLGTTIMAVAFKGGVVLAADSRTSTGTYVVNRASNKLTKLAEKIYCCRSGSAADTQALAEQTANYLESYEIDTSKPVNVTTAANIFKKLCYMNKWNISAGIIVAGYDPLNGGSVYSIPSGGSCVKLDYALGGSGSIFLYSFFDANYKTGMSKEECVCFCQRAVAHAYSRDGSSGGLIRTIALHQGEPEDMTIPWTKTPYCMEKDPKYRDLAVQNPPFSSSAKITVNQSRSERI
Source text: The commercially available Proteasome-Glo 3-substrate system and chymotrypsin-like assay kits (Promega; catalogue no. G8531 and G8622, respectively) were assembled according to the manufacturers’ protocols ([29]) unless otherwise stated. Briefly, Proteasome-Glo buffer was used to formulate the luciferin detection reagent (containing a recombinant thermostable luciferase enzyme) to approximately 0.35% (wt/vol) final assay concentration. The luciferin detection reagent was then mixed with Proteasome-Glo trypsin-, caspase-, or chymotrypsin-like reagents (comprising 15 μM Z-Leu-Arg-Arg-aminoluciferin (Z is benzyloxycarbonyl), 20 μM Z-Nle-Pro-Nle-Asp-aminoluciferin, or 20 μM suc-Leu-Leu-Val-Tyr-aminoluciferin substrate, respectively, at final assay concentrations), and the mixture was allowed to incubate at room temperature for 60 min prior to use. T. cruzi proteasome buffer comprised 50 mM Tris-HCl, pH 7.5, 10 mM sucrose, 5 mM MgCl2, 1 mM dithiothreitol, 2 mM ATP, 150 mM NaCl, 1 mM EDTA, and 0.05 mg/ml bovine serum albumin (BSA). T. cruzi strain Silvio X10/7 epimastigotes were maintained in vitro at 28°C in RTH-fetal calf serum (FCS) culture medium (RPMI 1640 supplemented with 0.4% Trypticase peptone, 0.017 M HEPES, 25 μM hemin, 10% heat-inactivated FCS). Biochemical cell-free assays were performed in an 8-μl final assay volume using 384-well white low-volume plates (Greiner; catalogue no. 784904), and cellular assays were performed in a 50-μl final assay volume using 384-well standard volume plates (Greiner; catalogue no. 781098). Luminescence was read using an EnVision 2102 Multilabel Reader (PerkinElmer, USA) with 0.2-s per well reading time, unless otherwise specified. DMSO or compound was added to the assay plates using Echo acoustic dispensers (Labcyte, USA). Reagent addition for high-throughput screening assays was performed using an Xrd-384 liquid dispenser (FluidX, United Kingdom) and a BioFill Solo/Xrd-384 8-channel resin nozzle (0.5- to 200-μl) tubing cartridge (FluidX; catalogue no. 34-1003). Data analysis was performed using SigmaPlot 12.5 software unless otherwise stated. Z factor values were calculated using the following equation: Z factor = 1 − ({3 × [1.483 × (RLU MAD Max)]} + {3 × [1.483 × (RLU MAD Min)]})/(median RLU Max − median RLU Min), where MAD is the median absolute deviation, Max is the maximum-effect control samples, and Min is the minimum-effect control samples.
as §2
The four-parameter logistic model is as follows: y=Min+Max−Min/1+(x/IC50)^−Hillslope […]

The subject of data set [4] is T. cruzi strain Silvio X10/7 epimastigotes. The data set is described as follows: Cellular T. cruzi epimastigote viability assay. In kind it is cell-based, Trypanosoma cruzi. As to conditions: 96 h; for EC50: Trypanosoma cruzi, read-out: Cellular pEC50 ± SD (converted). The procedure:
For the cell viability readout, BacTiter-Glo microbial cell viability reagent (Promega; catalogue no. G8230) was added to each well (25 μl) and incubated at room temperature for 5 min. The plates were then sealed with clear film, and the luminescence was read using a Victor 3 (PerkinElmer, USA) or Pherastar FS (BMG Labtech, Germany) plate reader with a 0.5-s per well reading time. Data for epoxomicin were obtained from three independent replicates (n = 3), and data for all the remaining compounds were acquired from four independent replicates (n = 4). RLU data were normalized to percent inhibition values relative to 100% effect (Nifurtimox) and 0% effect (DMSO; 1% [vol/vol] final assay concentration) control populations. Normalized data for each independent replicate were fitted separately to a four-parameter logistic regression model, and pEC50 {i.e., −log(EC50[M])} values were calculated using IBDS ActivityBase 8.1.2.12 software, after which a mean pEC50 value for each compound was calculated.

The target in data set [5] is T. cruzi proteasome trypsin-like activity (Trypanosoma cruzi, UniProt V5BCU3+V5BGL9). Put plainly: Cell-free T. cruzi proteasome trypsin-like activity luminescence assay. Type of data set: biochemical. To be noted: n = 4; 15 μM Z-Leu-Arg-Arg-aminoluciferin.
Sequence of T. cruzi proteasome trypsin-like activity (V5BGL9 entry or part of it): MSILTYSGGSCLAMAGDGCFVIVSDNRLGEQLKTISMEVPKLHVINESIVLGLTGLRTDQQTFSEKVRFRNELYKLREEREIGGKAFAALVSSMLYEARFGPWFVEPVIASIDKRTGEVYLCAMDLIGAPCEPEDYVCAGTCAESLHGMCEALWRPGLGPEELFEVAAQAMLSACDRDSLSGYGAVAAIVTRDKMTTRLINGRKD
Sequence of T. cruzi proteasome trypsin-like activity (V5BCU3 entry or part of it): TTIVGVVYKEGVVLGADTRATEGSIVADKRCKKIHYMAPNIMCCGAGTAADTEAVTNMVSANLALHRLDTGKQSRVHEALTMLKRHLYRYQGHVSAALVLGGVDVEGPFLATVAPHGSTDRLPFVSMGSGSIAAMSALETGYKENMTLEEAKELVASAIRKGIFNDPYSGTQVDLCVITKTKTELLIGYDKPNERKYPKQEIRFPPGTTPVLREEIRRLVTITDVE
Source text: as §1, with “Reagent addition for high-throughput screening assays was performed using an Xrd-384 liquid dispenser (FluidX, United Kingdom) and a BioFill Solo/Xrd-384 8-channel resin nozzle (0.5- to 200-μl) tubing cartridge (FluidX; catalogue no. 34-1003). Data analysis was performed using SigmaPlot 12.5 software unless otherwise stated.” left out
as §2, with “Data were acquired from 4 independent replicates (n = 4).” left out, “below. […]” for “below.”

Data set [6] has as its system proteasome chymotrypsin-like activity. More on the design: method as in PMID 25308265. To be noted: similar assay platform in a cellular system; read-out: Km, approximate value; cited from earlier work.
The next data set relates to T. cruzi proteasome. Put plainly: Kinetic-parameter (Km) determination for chymotrypsin-like substrate. Type of data set: biochemical, Trypanosoma cruzi. To be noted: 95% CI = 78.8 to 108.4 μM; 60-min reaction; n = 3; read-out: apparent steady-state Km. The procedure: Assay linearity and the optimal amount of T. cruzi proteasome for screening was determined by first serially diluting (1 in 2; CMF = 0.5) the proteasome stock solution in proteasome buffer to generate 10 additional concentrations. Next, 4 μl of each of the T. cruzi proteasome solutions was added to 4 μl of the luciferin detection and Proteasome-Glo chymotrypsin-like reagent mixture. Luminescence was read immediately and then every 90 s for 75 min. Data were acquired from 5 technical replicates (n = 5). To calculate the Michaelis constant (Km) and identify the optimal amount of chymotrypsin-like suc-Leu-Leu-Val-Tyr-aminoluciferin substrate for screening, the Proteasome-Glo chymotrypsin-like assay (Promega; catalogue no. G8622) luciferin detection reagent (comprising luciferase enzyme in Proteasome-Glo buffer) was prepared according to the manufacturers’ protocol ([29]). A 1,200 μM solution (600 μM final assay concentration) of the substrate was prepared and subsequently serially diluted (1 in 2; CMF = 0.5) using the luciferin detection reagent to generate 8 additional concentrations. Next, 4 μl of each of the luciferin detection and substrate solution mixtures was added to 4 μl of partially purified T. cruzi proteasome that was diluted 1 in 4 (CMF = 0.25) from the original stock using proteasome buffer. Luminescence was read immediately and then every 90 s for 75 min. […]

Where [7] appears, read: BacTiter-Glo viability readout, n = 4 (epoxomicin n = 3).

On to `O=C(Cn1ccnc1[N+](=O)[O-])NCc1ccccc1` [Benznidazole, benznidazole], for which the “treatment discontinuation rate due to side effects” value in data set [1] was 10%.
Regarding `CC(C)C[C@H](NC(=O)[C@H](Cc1ccccc1)NC(=O)c1cnccn1)B(O)O` [Bortezomib, bortezomib], in data set [2], the “chymotrypsin-like activity dose-response curve shape” value is on record as “biphasic”. Further, in data set [2] (concentration approximately equivalent to IC30, used for spiking test plates), the IC30 is about 4 nM. Also, the IC70 in data set [2] (concentration approximately equivalent to IC70, used for spiking test plates) was about 0.079 µM. Further, the “Cell-free pIC50 ± SD, Caspase-like” value in data set [3] is on record as 7.16 ± 0.13 M. Moreover, in data set [4] (setting [7]), the EC50 is 240 nM.
For `CC[C@H](C)[C@H](NC(=O)[C@H]([C@@H](C)CC)N(C)C(C)=O)C(=O)N[C@H](C(=O)N[C@@H](CC(C)C)C(=O)[C@@]1(C)CO1)[C@@H](C)O` [Epoxomicin, epoxomicin], in data set [5], the “Cell-free pIC50 ± SD, Trypsin-like” value amounted to 6.10 ± 0.06 M. Also, in data set [3], the “Cell-free pIC50 ± SD, Caspase-like” value amounted to 5.85 ± 0.05 M. Further, in data set [4], the EC50 is 63.1 nM.
With `CC(C)C[C@H](NC(=O)CNC(=O)c1cc(Cl)ccc1Cl)B(O)O` [Ixazomib, ixazomib], in data set [5], the “Cell-free pIC50 ± SD, Trypsin-like” value came out at 5.51 ± 0.07 M. For the same compound, the “chymotrypsin-like activity dose-response curve shape” value in data set [2] was “biphasic”. The “Cell-free pIC50 ± SD, Caspase-like” value in data set [3] is 7.49 ± 0.17 M. The EC50 in data set [4] (setting [7]) was 708 nM.
For `CCC[C@@H](C=O)NC(=O)C(CC(C)C)NC(=O)[C@H](CC(C)C)NC(=O)OCc1ccccc1` (stereo partly drawn) [MG115] (Cbz-Leu-[ξL]-[Nva]-aldehyde), in data set [5], the “Cell-free pIC50 ± SD, Trypsin-like” value came out at 4.87 ± 0.09 M. Moreover, the “Cell-free pIC50 ± SD, Caspase-like” value in data set [3] is on record as 4.91 ± 0.10 M. Besides, the EC50 in data set [4] (setting [7]) was 4370 nM.
As to `CC(C)C[C@@H](C=O)NC(=O)[C@H](CC(C)C)NC(=O)[C@H](CC(C)C)NC(=O)OCc1ccccc1` [MG132] (Cbz-Leu-Leu-Leu-aldehyde), the “Cell-free pIC50 ± SD, Trypsin-like” value in data set [5] worked out at 4.88 ± 0.14 M. The “chymotrypsin-like activity dose-response curve shape” value in data set [2] is reported as “biphasic”. In addition, the “Cell-free pIC50 ± SD, Caspase-like” value in data set [3] is given as 6.01 ± 0.09 M. The EC50 in data set [4] was 2450 nM.
Turning to oprozomib, in data set [4] (setting [7]), the “Cellular pEC50 ± SD” value is listed as 6.53 ± 0.32 M.
In the case of “succinyl-Leu-Leu-Val-Tyr-aminoluciferin (Suc-LLVY-aminoluciferin; SMILES CC(C)C[C@H](NC(=O)CCC(=O)O)C(=O)N[C@@H](CC(C)C)C(=O)N[C@H](C(=O)N[C@@H](Cc1ccc(O)cc1)C(=O)Nc1ccc2nc(C3=N[C@@H](C(=O)O)CS3)sc2c1)C(C)C) [suc-Leu-Leu-Val-Tyr-aminoluciferin, luminogenic chymotrypsin-like peptide substrate]”, the Km in data set [6] is about 60 µM; with T. cruzi proteasome it was 93.5 µM.

What is called IC30 is the concentration needed for an effect of 30%. What is called IC70 is the concentration needed for an effect of 70%. By Km is commonly meant the substrate concentration at which the rate is half of its maximum.
